Data reported in ChEMBL document CHEMBL5113478, “7-Azaindole, 2,7-diazaindole, and 1H-pyrazole as core structures for novel anticancer agents with potential chemosensitizing properties” (Eur J Med Chem, 2022).
Active and inactive are the calls of the source. The calls are words filed in the database; no cut-off is given here.

Experiments:
A549 [1] = assay: Antiproliferative activity against human A549 cells assessed as […] cell proliferation at 10 uM incubated for 48 hrs in presence of 15 uM of CDDP by WST-1 assay relative to control; type: functional
HT-29 [2] = assay: Antiproliferative activity against human HT-29 cells assessed as […] cell proliferation at 10 uM incubated for 48 hrs by WST-1 assay relative to control; type: functional
PANC-1 [3] = assay: Antiproliferative activity against human PANC-1 cells assessed as […] cell proliferation at 10 uM incubated for 48 hrs in presence of 15 uM of CDDP by WST-1 assay relative to control; type: functional
SAOS-2 [4] = assay: Antiproliferative activity against human SAOS-2 cells assessed as […] cell proliferation at 10 uM incubated for 48 hrs in presence of 15 uM of CDDP by WST-1 assay relative to control; type: functional
GBM = assay: Cytotoxicity against patient-derived human GBM cells assessed as reduction in cell viability at 15 uM incubated for 48 hrs by MTT assay; type: functional
A2780 [5] = assay: Antiproliferative activity against human A2780 cells assessed as […] cell proliferation at 10 uM incubated for 48 hrs by WST-1 assay relative to control; type: functional
MCF7 [6] = assay: Antiproliferative activity against human MCF7 cells assessed as […] cell proliferation at 10 uM incubated for 48 hrs by WST-1 assay relative to control; type: functional
MOLT-4 [7] = assay: Antiproliferative activity against human MOLT-4 cells assessed as […] cell proliferation at 10 uM incubated for 48 hrs by WST-1 assay relative to control; type: functional
HeLa [8] = assay: Antiproliferative activity against human HeLa cells assessed as […] cell proliferation at 10 uM incubated for 48 hrs by WST-1 assay relative to control; type: functional
SAOS-2 [9] = assay: Antiproliferative activity against human SAOS-2 cells assessed as […] cell proliferation at 10 uM incubated for 48 hrs by WST-1 assay relative to control; type: functional
HeLa [10] = assay: Antiproliferative activity against human HeLa cells assessed as […] cell proliferation at 10 uM incubated for 48 hrs in presence of 15 uM of CDDP by WST-1 assay relative to control; type: functional
MOLT-4 [11] = assay: Antiproliferative activity against human MOLT-4 cells assessed as […] cell proliferation at 10 uM incubated for 48 hrs in presence of 2 uM of CDDP by WST-1 assay relative to control; type: functional
1321N1 [12] = assay: Cytotoxicity against human 1321N1 cells assessed as reduction in cell viability at 15 uM incubated for 48 hrs by MTT assay; type: functional, cell-based
HT-29 [13] = assay: Antiproliferative activity against human HT-29 cells assessed as […] cell proliferation at 10 uM incubated for 48 hrs in presence of 15 uM of CDDP by WST-1 assay relative to control; type: functional
MCF7 [14] = assay: Antiproliferative activity against human MCF7 cells assessed as […] cell proliferation at 10 uM incubated for 48 hrs in presence of 10 uM of CDDP by WST-1 assay relative to control; type: functional
Jurkat [15] = assay: Antiproliferative activity against human Jurkat cells assessed as […] cell proliferation at 10 uM incubated for 48 hrs by WST-1 assay relative to control; type: functional
Jurkat [16] = assay: Antiproliferative activity against human Jurkat cells assessed as […] cell proliferation at 10 uM incubated for 48 hrs in presence of 2 uM of CDDP by WST-1 assay relative to control; type: functional
A549 [17] = assay: Antiproliferative activity against human A549 cells assessed as […] cell proliferation at 10 uM incubated for 48 hrs by WST-1 assay relative to control; type: functional
PANC-1 [18] = assay: Antiproliferative activity against human PANC-1 cells assessed as […] cell proliferation at 10 uM incubated for 48 hrs by WST-1 assay relative to control; type: functional
A2780 [19] = assay: Antiproliferative activity against human A2780 cells assessed as […] cell proliferation at 10 uM incubated for 48 hrs in presence of 2 uM of CDDP by WST-1 assay relative to control; type: functional
1321N1 [20] = assay: Chemo-sensitizing activity against human 1321N1 cells at 15 uM incubated for 48 hrs in presence of TMZ by MTT assay; type: functional, cell-based

SMILES	Activity (A549 [1]) [%]	Cell viability relative to control (HT-29 [2]) [%]	Activity (PANC-1 [3]) [%]	Activity (SAOS-2 [4]) [%]	Activity (A2780 [5]) [%]	Activity (MCF7 [6]) [%]	Activity (MOLT-4 [7]) [%]	Activity (HeLa [8]) [%]	Activity (SAOS-2 [9]) [%]	Activity (HeLa [10]) [%]	Activity (MOLT-4 [11]) [%]	Activity (HT-29 [13]) [%]	Activity (MCF7 [14]) [%]	Activity (Jurkat [15]) [%]	Activity (Jurkat [16]) [%]	Activity (A549 [17]) [%]	Activity (PANC-1 [18]) [%]	Activity (A2780 [19]) [%]	further results
CCN(CC)c1ccc(CNC(=O)c2c[nH]c3ncc(-c4ccc(S(=O)(=O)C(C)C)cc4)cc23)cc1	58	64	58	58	64	64	64	64	64	58	58	58	58	64	58	64	64	58	Activity (GBM): Active; Activity (1321N1 [12]): Active
CC(C)S(=O)(=O)c1ccc(-c2cc(C(=O)N3CCc4ccccc4C3)n[nH]2)cc1	57	82	57	57	82	82	82	82	82	57	57	57	57	82	57	82	82	57	Activity (GBM): 50%; Activity (1321N1 [12]): Active; Activity (1321N1 [20]): Active
CC(C)S(=O)(=O)c1ccc(-c2cnc3[nH]nc(C(=O)N4CCc5ccccc5C4)c3c2)cc1	61	96	61	61	96	96	96	96	96	61	61	61	61	96	61	96	96	61	
CC(C)S(=O)(=O)c1ccc(-c2cnc3[nH]cc(C(=O)NCc4ccccc4)c3c2)cc1	65	83	65	65	83	83	83	83	83	65	65	65	65	83	65	83	83	65	
CCN(CC)c1ccc(CNC(=O)c2c[nH]c3ncc(-c4ccc(S(C)(=O)=O)cc4)cc23)cc1	59	76	59	59	76	76	76	76	76	59	59	59	59	76	59	76	76	59	
CC(C)S(=O)(=O)c1ccc(-c2cc(C(=O)Nc3ccccc3)n[nH]2)cc1	70	107	70	70	107	107	107	107	107	70	70	70	70	107	70	107	107	70	
CC(C)S(=O)(=O)c1ccc(-c2cc(C(=O)NCc3ccccc3)n[nH]2)cc1	68	98	68	68	98	98	98	98	98	68	68	68	68	98	68	98	98	68	
CCN1CCN(C(=O)c2c[nH]c3ncc(-c4ccc(S(=O)(=O)C(C)C)cc4)cc23)CC1	66	100	66	66	100	100	100	100	100	66	66	66	66	100	66	100	100	66	
CC(C)S(=O)(=O)c1ccc(-c2cnc3[nH]c(C(=O)Nc4ccc(N(C)C)cc4)cc3c2)cc1	68	108	68	68	108	108	108	108	108	68	68	68	68	108	68	108	108	68	
CCN1CCN(Cc2c[nH]c3ncc(-c4ccc(S(=O)(=O)C(C)C)cc4)cc23)CC1	65	97	65	65	97	97	97	97	97	65	65	65	65	97	65	97	97	65	
CS(=O)(=O)c1ccc(-c2cnc3[nH]c(C(=O)NCc4ccccc4)cc3c2)cc1	72	100	72	72	100	100	100	100	100	72	72	72	72	100	72	100	100	72	
CCN1CCN(C(=O)c2cc3cc(-c4ccc(S(C)(=O)=O)cc4)cnc3[nH]2)CC1	58	90	58	58	90	90	90	90	90	58	58	58	58	90	58	90	90	58	
